Columns and labels:
[1] = system: U251; experiment: NCI 60 panel growth inhibition (SRB), CNS cancer; type: cell-based, human; conditions: U251, 10 μM
Description: (§1) Screening of cytotoxic activity against a panel of sixty human tumor cell lines The selected compounds by NCI were evaluated for their anticancer activity in a two- stage process. […] Then, the output from the single dose screen is reported as a mean graph. […] Assay protocol. […] For a typical screening experiment, cells are inoculated into 96 well microtiter plates in 100 µL at plating densities ranging from 5000 to 40,000 cells/well depending on the doubling time of individual cell lines. […] After 24 h, two plates of each cell line are fixed in situ with TCA, to represent a measurement of the cell population for each cell line at the time of drug addition (Tz). The experimental drugs are solubilized in dimethyl sulfoxide at 400-fold the desired final maximum test concentration and stored frozen prior to use. At the time of drug addition, an aliquot of frozen concentrate is thawed and diluted to twice the desired final maximum test concentration with complete medium containing 50 µg/mL gentamicin. Additional four, 10-fold or ½ log serial dilutions are made to provide a total of five drug concentrations plus control. […] For adherent cells, the assay is terminated by the addition of cold TCA. […] The supernatant is discarded, and the plates are washed five times with tap water and air dried. […] Using the seven absorbance measurements [time zero, (Tz), control growth, (C), and test growth in the presence of drug at the five concentration levels (Ti)], the percentage growth is calculated at each of the drug concentrations levels. Percentage growth inhibition is calculated as: [(Ti Tz)/(C–Tz)] x 100 for concentrations for which Ti>/=Tz and [(Ti-Tz)/Tz] x 100 for concentrations for which Ti < Tz. Three dose response parameters are calculated for each experimental agent. […] The drug concentration resulting in total growth inhibition (TGI) is calculated from Ti = Tz. […] Values are calculated for each of these three parameters if the level of activity is reached; however, if the effect is not reached or is exceeded, the value for that parameter is expressed as greater or less than the maximum or minimum concentration tested.

[2] = system: SNB-75; experiment: NCI 60 panel growth inhibition (SRB), CNS cancer; type: cell-based, human; conditions: SNB-75, 10 μM
Description: as §1

[3] = system: SF-268; experiment: NCI 60 panel growth inhibition (SRB), CNS cancer; type: cell-based, human; conditions: SF-268, 10 μM
Description: as §1

[4] = system: SF-295; experiment: NCI 60 panel growth inhibition (SRB), CNS cancer; type: cell-based, human; conditions: SF-295, 10 μM
Description: as §1

[5] = system: SF-539; experiment: NCI 60 panel growth inhibition (SRB), CNS cancer; type: cell-based, human; conditions: SF-539, 10 μM
Description: as §1

[6] = system: SNB-19; experiment: NCI 60 panel growth inhibition (SRB), CNS cancer; type: cell-based, human; conditions: SNB-19, 10 μM
Description: as §1

[7] = system: OVCAR-4; experiment: NCI 60 panel growth inhibition (SRB), ovarian cancer; type: cell-based, human; conditions: OVCAR-4, 10 μM
Description: as §1

[8] = system: IGROV1; experiment: as above; type: cell-based, human; conditions: IGROV1, 10 μM
Description: as §1

[9] = system: NCI/ADR-RES; experiment: as above; type: cell-based, human; conditions: 10 μM
Description: as §1

[10] = system: OVCAR-3; experiment: as above; type: cell-based, human; conditions: OVCAR-3, 10 μM
Description: as §1

[11] = system: OVCAR-8; experiment: as above; type: cell-based, human; conditions: OVCAR-8, 10 μM
Description: as §1

[12] = system: OVCAR-5; experiment: as above; type: cell-based, human; conditions: OVCAR-5, 10 μM
Description: as §1

[13] = system: ACHN; experiment: NCI 60 panel growth inhibition (SRB), renal cancer; type: cell-based, human; conditions: 10 μM
In short: (§2)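 Two-stage NCI process: single-dose screen, then five-concentration testing of selected compounds. Growth relative to time-zero and untreated controls was derived from SRB absorbance, and TGI from the concentration giving Ti = Tz.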

[14] = system: CAKI-1; experiment: NCI 60 panel growth inhibition (SRB), renal cancer; type: cell-based, human; conditions: CAKI-1, 10 μM
In short: as §2

[15] = system: A498; experiment: NCI 60 panel growth inhibition (SRB), renal cancer; type: cell-based, human; conditions: A498, 10 μM
In short: as §2

[16] = system: SN12C; experiment: NCI 60 panel growth inhibition (SRB), renal cancer; type: cell-based, human; conditions: 10 μM
In short: as §2

[17] = system: SK-MEL-2; experiment: NCI 60 panel growth inhibition (SRB), melanoma; type: cell-based, human; conditions: SK-MEL-2, 10 μM
In short: as §2

[18] = system: NCI 60 cancer cell line panel; experiment: NCI 60 panel growth inhibition (SRB), whole panel; type: cell-based, human; conditions: mean over NCI 60 panel, 10 μM
Description: as §1

[19] = system: CCRF-CEM; experiment: NCI 60 panel growth inhibition (SRB), leukemia; type: cell-based, human; conditions: 10 μM
Description: as §1

[20] = system: RPMI-8226; experiment: NCI 60 panel growth inhibition (SRB), leukemia; type: cell-based, human; conditions: RPMI-8226, 10 μM
Description: as §1

[21] = system: HL-60(TB); experiment: NCI 60 panel growth inhibition (SRB), leukemia; type: cell-based, human; conditions: HL-60(TB), 10 μM
Description: as §1

[22] = system: SR; experiment: NCI 60 panel growth inhibition (SRB), leukemia; type: cell-based, human; conditions: 10 μM
Description: as §1

[23] = system: MOLT-4; experiment: NCI 60 panel growth inhibition (SRB), leukemia; type: cell-based, human; conditions: MOLT-4, 10 μM
Description: as §1

[24] = system: K-562; experiment: NCI 60 panel growth inhibition (SRB), leukemia; type: cell-based, human; conditions: K-562, 10 μM
Description: as §1

[25] = system: HT29; experiment: NCI 60 panel growth inhibition (SRB), colon cancer; type: cell-based, human; conditions: HT29, 10 μM
In short: as §2

[26] = system: SK-OV-3; experiment: NCI 60 panel growth inhibition (SRB), ovarian cancer; type: cell-based, human; conditions: SK-OV-3, 10 μM
Description: as §1

[27] = system: 786-0; experiment: NCI 60 panel growth inhibition (SRB), renal cancer; type: cell-based, human; conditions: 786-0, 10 μM
In short: as §2

Compound | GI% [1] | GI% [2] | GI% [3] | GI% [4] | GI% [5] [%] | GI% [6] | GI% [7] [%] | GI% [8] | GI% [9] [%] | GI% [10] | GI% [11] [%] | GI% [12] | GI% [13] [%] | GI% [14] [%] | GI% [15] | GI% [16] [%] | Mean GI% [18] [%] | GI% [19] [%] | GI% [20] [%] | GI% [21] | also measured
COc1ccc(-c2nc3ccccc3s2)cc1OCC(=O)NN=C1C(=O)Nc2ccccc21 [Compound 9m, 2-(5-(Benzo[d]thiazol-2-yl)-2-methoxyphenoxy)-N′-(2-oxoindolin-3-ylidene) acetohydrazide] | 13.36% | – (GI% < 5%) | – (GI% < 5%) | – (GI% < 5%) | 10.76 | – (GI% < 5%) | 16.50 | – (GI% < 5%) | 28.96 | – (GI% < 5%) | 20.84 | – (GI% < 5%) | 19.82 | 9.28 | – (GI% < 5%) | 7.15 | 6.03 | 40.05 | 25.46 | – (GI% < 5%) | melting point: 192 to 194 °C; GI% [17]: – (GI% < 5%); GI% [22]: 12.20%; GI% [23]: 23.70%; GI% [24]: 11.23%; GI% [25]: – (GI% < 5%)
COc1ccc2c(c1)C(=NNC(=O)COc1ccccc1-c1nc3ccccc3s1)C(=O)N2 [Compound 9c, 2-(2-(Benzo[d]thiazol-2-yl)phenoxy)-N′-(5-methoxy-2-oxoindolin-3-ylidene)acetohydrazide] | – (GI% < 5%) | – (GI% < 5%) | 13.85% | 20.67% | 5.44 | 7.69% | 32.22 | – (GI% < 5%) | 25.58 | – (GI% < 5%) | 19.15 | – (GI% < 5%) | 9.04 | 28.09 | – (GI% < 5%) | 12.43 | 12.24 | 60.17 | 48.87 | 15.59% | GI% [26]: – (GI% < 5%); melting point: 240 to 242 °C; GI% [27]: 5.40%; GI% [22]: 20.98%; GI% [23]: 47.19%; GI% [24]: 30.54%
CNC(=O)c1nn(C)c2c1C(C)(C)Cc1cnc(Nc3ccc(N4CCN(C)CC4)cc3)nc1-2 [Milciclib, reference compound] | 91.50% | 120.6% | 92.00% | 84.70% | 128.60 | 87.7% | 87.10 | 97.50% | 90.10 | 79.30% | 91.10 | 90.90% | 90.4 | 92.30 | 161.60% | 88.70 | > 100 | 89.60 | 99.60 | 127.0% | GI% [26]: 116.90%; GI% [27]: 87.70%; Mean GI% ([18]; listed as milciclib): more than 100%; GI% [22]: 101.8%; GI% [23]: 97.70%; GI% [24]: 94.6%; GI% [25]: 116.2%
COc1cccc(-c2nc3ccccc3s2)c1OCC(=O)NN=C1C(=O)Nc2ccc(C)cc21 [Compound 9h, 2-(2-(Benzo[d]thiazol-2-yl)-6-methoxyphenoxy)-N′-(5-methyl-2-oxoindolin-3-ylidene)acetohydrazide] | 5.89% | – (GI% < 5%) | – (GI% < 5%) | 19.06% | 9.04 | 8.33% | 20.46 | 6.64% | 14.65 | – (GI% < 5%) | 12.04 | – (GI% < 5%) | 11.83 | 36.68 | – (GI% < 5%) | 9.88 | 9.27 | 47.56 | 54.14 | – (GI% < 5%) | GI% [26]: 14.52%; melting point: 244 to 246 °C; GI% [27]: 9.21%; GI% [22]: – (GI% < 5%); GI% [23]: 43.65%; GI% [24]: 26.17%

Reference: article PMC11396129, “Oxindole–benzothiazole hybrids as CDK2 inhibitors and anticancer agents: design, synthesis and biological evaluation” (BMC Chemistry, 2024)
